Laboratory results from US5525591A, “Endoparasiticidal compositions based on open-chain octadepsipeptides” (Bayer Aktiengesellschaft, priority 1993, dated 1996).

Tested on: Haemonchus contortus
Assay: In vivo nematode test Haemonchus contortus/sheep
Conditions: sheep infected experimentally with Haemonchus contortus, treated after prepatency period; pure active compound applied orally and/or intravenously; dose at which nematode egg excretion with the faeces stopped completely
Description: In vivo nematode test Haemonchus contortus/sheep
The degree of effectiveness is determined by quantitatively determinating the nematode eggs excreted with the faeces before and after the treatment.

tert-Butyl-N-Benzyl-N-propyl-L-leucyl-D-lactyl-N-^i -propyl-L-leucyl-D-3-phenyllactyl-N-^i propyl-L-leucyl-D-lactyl-N-^i propyl-L-leucyl-D-3-phenyllactate [Example 2]
Dosis effectiva: 10 mg/kg
